Read-outs that look alike come from different tables or passages of the source.
What was measured:
[1] = tested on: Escherichia coli; assay: Broth microdilution MIC (Example 11)
[2] = tested on: Klebsiella pneumoniae; assay: Broth microdilution MIC (Example 11)
[3] = tested on: Enterobacter cloacae; assay: Broth microdilution MIC (Example 11); details: ATCCBAA2468
[4] = tested on: Pseudomonas aeruginosa; assay: Broth microdilution MIC (Example 11); details: Pseudomonas aeruginosa
[5] = tested on: Acinetobacter baumannii; assay: Broth microdilution MIC (Example 11); details: Acinetobacter baumannii
[6] = tested on: Staphylococcus aureus (MRSA); assay: Broth microdilution MIC (Example 11)
[7] = tested on: E. faecalis; assay: Broth microdilution MIC (Example 11); details: Enterococcus faecalis, VRE, VRE Lev^R Cip^R Ery^R
[8] = tested on: S. pyogenes; assay: Broth microdilution MIC (Example 11); details: Streptococcus pyogenes
[9] = tested on: S. agalactiae; assay: Broth microdilution MIC (Example 11); details: Streptococcus agalactiae
[10] = tested on: Escherichia coli; assay: Broth microdilution MIC (Example 12); details: Escherichia coli
[11] = tested on: Klebsiella pneumoniae; assay: Broth microdilution MIC (Example 12); details: Klebsiella pneumoniae
[12] = tested on: Pseudomonas aeruginosa; assay: Broth microdilution MIC (Example 12); details: Pseudomonas aeruginosa
[13] = tested on: Acinetobacter baumannii; assay: Broth microdilution MIC (Example 12); details: Acinetobacter baumannii
[14] = tested on: Pseudomonas aeruginosa strain PA01; assay: Bacterial killing curves with and without CF patient sputum; parameters: time to sterilization below the limit of detection: dose or concentration left out as unconfirmed

CC(S)C(C)S.[Bi] (centres unmarked) [BisBDT, bismuth-2,3-butanedithiol]
MIC ([1]; ATCC25922, E. coli MMX 102 (ATCC 25922), QC): 0.5 µg/mL
MIC ([1]; ATCCBAA2469, E. coli MMX 5980 (ATCC BAA-2469), NDM-1, Lev^R, MEM^R, CAZ^R, Gm^R): 1 µg/mL
MIC ([1]; E. coli MMX 8423, ESBL, Lev^R, CAZ^R, Gm^R): 1 µg/mL
MIC ([1]; E. coli MMX 8424, ESBL, CAZ^R): 0.5 µg/mL
MIC ([1]; E. coli MMX 8425, ESBL, Lev^R, CAZ^R, Gm^R): 1 µg/mL
MIC ([2]; K. pneumoniae MMX 4622, KPC-2, MEM^R, CAZ^R): 1 µg/mL
MIC ([2]; K. pneumoniae MMX 4623, KPC-2, MEM^R, CAZ^R, GM^R): 0.5 µg/mL
MIC ([2]; K. pneumoniae MMX 4653, KPC-3, Lev^R, MEM^R, CAZ^R): 2 µg/mL
MIC ([2]; K. pneumoniae MMX 4683, KPC-2, Lev^R, MEM^R, CAZ^R): 1 µg/mL
MIC ([2]; K. pneumoniae MMX 4684, ESBL, MEM^R): 2 µg/mL
MIC ([2]; K. pneumoniae MMX 4685, ESBL, Lev^R, MEM^R, CAZ^R): 1 µg/mL
MIC ([2]; K. pneumoniae MMX 4694, KPC-3, Lev^R, MEM^R, CAZ^R): 1 µg/mL
MIC ([2]; K. pneumoniae MMX 5979, NDM-1, Lev^R, MEM^R, CAZ^R, Gm^R): 1 µg/mL
MIC [3]: 2 µg/mL
MIC ([4]; ATCC27853, P. aeruginosa MMX 103 (ATCC 27853), QC): 1 µg/mL
MIC ([4]; P. aeruginosa MMX 1381, MDR, Lev^R, Cip^R, MEM^R, CAZ^R): 1 µg/mL
MIC ([4]; P. aeruginosa MMX 2562, MDR, Lev^R, Cip^R, MEM^R, CAZ^R): 2 µg/mL
MIC ([4]; P. aeruginosa MMX 3991, MDR, Lev^R, Cip^R, MEM^R, CAZ^R): 2 µg/mL
MIC ([4]; P. aeruginosa MMX 4654, IMP-7, Lev^R, Cip^R, MEM^R, CAZ^R): 2 µg/mL
MIC ([4]; P. aeruginosa MMX 4697, VIM-2, Lev^R, Cip^R, MEM^R, CAZ^R): 2 µg/mL
MIC ([5]; A. baumannii MMX 2592, MDR, Lev^R, Cip^R, MEM^R, CAZ^R, Gm^R): 0.5 µg/mL
MIC ([5]; A. baumannii MMX 2593, MDR, Lev^R, Cip^R, MEM^R, CAZ^R, Gm^R): 0.5 µg/mL
MIC ([5]; A. baumannii MMX 3372, MDR, Cip^R, MEM^I, CAZ^I): 1 µg/mL
MIC ([5]; A. baumannii MMX 3373, Sensitive): 0.5 µg/mL
MIC ([5]; NCTC13304, A. baumannii MMX 4651 (NCTC 13304), MDR, OXA-27, Lev^R, Cip^R, MEM^R, CAZ^R, Gm^I): 0.5 µg/mL
MIC ([6]; ATCC29213 / MRSA / MSSA): ≤ 0.06 µg/mL
MIC ([6]; MRSA): ≤ 0.06 µg/mL
MIC ([6]; MRSA, read-out: MIC values): < 0.06 µg/mL
MIC ([7]; E. faecalis MMX 8960): 0.5 µg/mL
MIC ([7]; E. faecalis MMX 8961): 0.25 µg/mL
MIC ([7]; E. faecalis MMX 8962): 0.25 µg/mL
MIC ([8]; S. pyogenes MMX 3068, Ery^R): 0.12 µg/mL
MIC ([8]; S. pyogenes MMX 3820, ERY^R CLI^R): 0.5 µg/mL
MIC ([8]; S. pyogenes MMX 3919, ERY^R): 0.03 µg/mL
MIC ([8]; S. pyogenes MMX 3929, ERY^R CC^R): 0.5 µg/mL
MIC ([8]; S. pyogenes MMX 5091, ERY^R CC^R): 1 µg/mL
MIC ([9]; S. agalactiae MMX 3741, ERY^R CC^R): 0.25 µg/mL
MIC ([9]; S. agalactiae MMX 3743, ERY^R CC^R): 0.25 µg/mL
MIC ([9]; S. agalactiae MMX 4077, ERY^R CC^R): 0.25 µg/mL
MIC ([9]; S. agalactiae MMX 4079, ERY^R CC^R Pen^R MEM^R): 0.5 µg/mL
MIC ([9]; S. agalactiae MMX 4086, ERY^R CC^R): 0.25 µg/mL
MIC ([10]; ATCC25922, E. coli ATCC 25922, QC organism): 1 µg/mL
MIC ([10]; ATCC35218, E. coli ATCC 35218, ESBL): 1 µg/mL
MIC ([10]; ATCC35218, E. coli ATCC 35218, QC organism (Table 102)): 1 µg/mL
MIC ([10]; ATCCBAA2471, E. coli ATCC BAA-2471, NDM): 2 µg/mL
MIC ([10]; E. coli CDC 114, ESBL/KPC): 2 µg/mL
MIC ([10]; E. coli CDC 118, ESBL/NDM): 1 µg/mL
MIC ([10]; E. coli CDC 435, NDM): 1 µg/mL
MIC ([10]; E. coli CDC 451, KPC): 1 µg/mL
MIC ([10]; E. coli CDC 503, ESBL/NDM): 2 µg/mL
MIC ([10]; E. coli MMX 5745, KPC): 2 µg/mL
MIC ([10]; E. coli MMX 5755, ESBL): 2 µg/mL
MIC ([10]; E. coli MMX 5756, ESBL): 1 µg/mL
MIC ([10]; E. coli MMX 5758, ESBL): 1 µg/mL
MIC ([11]; ATCCBAA1705, K. pneumoniae ATCC BAA-1705, ESBL/KPC): 1 µg/mL
MIC ([11]; ATCCBAA1705, K. pneumoniae ATCC BAA-1705, QC organism (Table 102)): 1 µg/mL
MIC ([11]; K. pneumoniae CDC 112, KPC): 2 µg/mL
MIC ([11]; K. pneumoniae CDC 113, ESBL/KPC): 1 µg/mL
MIC ([11]; K. pneumoniae CDC 115, ESBL/KPC): 2 µg/mL
MIC ([11]; K. pneumoniae CDC 120, ESBL/KPC): 2 µg/mL
MIC ([11]; K. pneumoniae CDC 126, ESBL/KPC): 2 µg/mL
MIC ([11]; K. pneumoniae CDC 129, ESBL/KPC): 4 µg/mL
MIC ([11]; K. pneumoniae CDC 135, ESBL/VIM): 4 µg/mL
MIC ([11]; K. pneumoniae CDC 138, ESBL/NDM): 2 µg/mL
MIC ([11]; K. pneumoniae CDC 158, ESBL/NDM/OXA): 2 µg/mL
MIC ([11]; K. pneumoniae MMX 9029, ESBL): 2 µg/mL
MIC ([12]; ATCC27853, P. aeruginosa ATCC 27853, QC organism): 1 µg/mL
MIC ([12]; P. aeruginosa CDC 230, VIM/OXA): 2 µg/mL
MIC ([12]; P. aeruginosa CDC 231, KPC/OXA): 2 µg/mL
MIC ([12]; P. aeruginosa CDC 241, IMP/OXA): 8 µg/mL
MIC ([12]; P. aeruginosa CDC 246, NDM/OXA): 2 µg/mL
MIC ([12]; P. aeruginosa CDC 250, NDM/OXA): 2 µg/mL
MIC ([12]; P. aeruginosa CDC 356, KPC): 1 µg/mL
MIC ([12]; P. aeruginosa CDC 439, IMP): 1 µg/mL
MIC ([12]; P. aeruginosa CDC 444, VIM): 1 µg/mL
MIC ([12]; P. aeruginosa CDC 457, VIM): 2 µg/mL
MIC ([12]; P. aeruginosa CDC 516, KPC/AmpC): 1 µg/mL
MIC ([12]; P. aeruginosa CDC 518, KPC/AmpC): 1 µg/mL
MIC ([13]; A. baumannii CDC 273, ESBL/OXA): 0.5 µg/mL
MIC ([13]; A. baumannii CDC 274, ESBL/OXA): 0.5 µg/mL
MIC ([13]; A. baumannii CDC 275, ESBL/OXA): 0.5 µg/mL
MIC ([13]; A. baumannii CDC 277, ESBL/OXA): 1 µg/mL
MIC ([13]; A. baumannii CDC 284, ESBL/OXA): 1 µg/mL
MIC ([13]; A. baumannii CDC 307, OXA): 0.5 µg/mL
MIC ([13]; A. baumannii CDC 308, ESBL/OXA): 0.5 µg/mL
MIC ([13]; A. baumannii CDC 311, OXA): 0.5 µg/mL
MIC ([13]; A. baumannii CDC 312, OXA): 0.5 µg/mL
MIC ([13]; A. baumannii CDC 313, ESBL/OXA): 0.5 µg/mL
MIC ([13]; NCTC13304, A. baumannii NCTC 13304, OXA): 0.5 µg/mL
bactericidal activity against PA01 ([14]; 0.1 μg/mL): not bactericidal
effect of CF patient sputum on bactericidal activity ([14]; 10% CF patient sputum): partially inhibited
time to sterilization below the limit of detection ([14]; with and without sputum): ≤ 5 h

— patent US11464749B2, “Bismuth-thiol compositions and methods of use” (Microbion Corporation, priority 2018, dated 2022)
